Target: MAGE-A11:PCF11 (Homo sapiens (Human), UniProt P43364)
Assay: TR-FRET single point screening at 15 μM
Type: binding
Set-up: unit not given here
Conditions: single point TR-FRET screening at 15 μM against MAGE-A11:PCF11
Excerpt: TR-FRET Assays and High-throughput Screen. Terbium-anti-GST antibody, 1 M Tris pH 7.5 1 M MgCl2 and 1 M DTT were purchased from Invitrogen (Carlsbad, CA), BSA was purchased from Sigma (St. Louis, MO). Dimethyl sulfoxide (DMSO) was purchased from Fisher Scientific (Pittsburgh, PA). Black 384-well low volume plates and 384-well polypropylene compound plates were purchased from Corning Incorporated (Tewksbury, MA). The St. Jude FDA drug and Bioactive library (11,293 chemicals), Drug-like library (10,073 chemicals) and Lead-like library (10,041 chemicals) were custom assembled and purchased from commercial sources including Sigma, Microsource (Gaylordsville, CT), selleckchem (Houston, TX), ChemDiv (San Diego, CA), ChemBridge (San Diego, CA), Enamine (Monmouth Jct., NJ), and Life Chemicals (Niagara-on-the-Lake, ON, Canada). They were arrayed (10 mM in DMSO) in 384-well polypropylene compound plates with columns 1, 2, 13 and 14 empty which were reserved for controls.
The TR-FRET assay buffer with a formula of 50 mM Tris pH 7.5, 20 mM MgCl2, 0.1 mg/ml BSA and 1 mM DTT was freshly prepared before each experiment. All TR-FRET assays were performed in black 384-well plates with 20 μl/well assay volume in the TR-FRET assay buffer at room temperature (approximately 25° C.). All peptides or compounds were solubilized in DMSO. To test the competitive activity of peptides or compounds against the interaction between GST-MAGEA11 MHD and FAM-PCF11_4 peptide, 10 μl/well peptide or compound at specified concentration was dispensed into a black 384-well low volume plate, followed by 5 μl/well FAM-PCF11_4 (800 nM), 5 μl/well Tb-anti-GST (20 nM) and GST-MAGEA11 MHD (20 nM). The assay components in each well was then mixed by shaking the plate on an IKA MTS 2/4 digital microtiter plate shaker (IKA Works; Wilmington, NC, USA) at 900 RPM for 1 minute. The plate was further centrifuged in an Eppendorf 5810 centrifuge with an A-4-62 swing-bucket rotor (Eppendorf AG, Hamburg, Germany) at 201 g (1000 rpm) for 30 seconds. The plate was then incubated for 90 min with a lid to avoid light exposure to the assay components. After incubation, the fluorescent emission signals at 520 nm and 490 nm channels of individual wells were measured with a PHERAstar FS plate reader (BMG Labtech; Durham, NC, USA) by using a 340 nm excitation filter, 100 μs delay time, and 200 μs integration time. The TR-FRET fluorescence emission ratio (TR-FRET signal) for each well was presented as 10 000×520 nm/490 nm, which was used directly for curve fitting, or further converted to % Inhibition based on the respective positive and negative controls. The graphic software GraphPad Prism 4.81 (GraphPad Software; La Jolla, CA, USA) was used to generate curves and derive IC50 values of tested peptides or compounds, if applicable.
TR-FRET screen for identifying MAGEA11 small molecule inhibitors was performed as follows. The primary one-concentration screening and subsequent 10 or 20-concentration dose response tests were accomplished with an automated High Throughput Screening system (HighRes Biosolutions, Beverly, MA)^30. In the primary screening, 15 μl/well FAM-PCF11_4 (267 nM) was first dispensed with a Multidrop Combi Reagent Dispenser (Thermo Fisher Scientific, Waltham, MA) to black 384-well low volume assay plates. The plates were spun down with a Velocity11 VSpin microplate centrifuge (Agilent Technologies, Santa Clara, CA). 30 nl/well of 10 mM compound/DMSO solutions, or DMSO alone, were transferred from compound plates (the St. Jude FDA drug and bioactive library, Drug-like library and Lead-like library) or a control plate to the assay plates with a Pin Tool (V&P Scientific, San Diego, CA). The compounds were arrayed in columns 3 to 12 and columns 15 to 24 of compound plates. The controls were arrayed in columns 1, 2, 13 and 14 of a compound plate. […]

MAGE-A11:PCF11, sequence (P43364 218-429): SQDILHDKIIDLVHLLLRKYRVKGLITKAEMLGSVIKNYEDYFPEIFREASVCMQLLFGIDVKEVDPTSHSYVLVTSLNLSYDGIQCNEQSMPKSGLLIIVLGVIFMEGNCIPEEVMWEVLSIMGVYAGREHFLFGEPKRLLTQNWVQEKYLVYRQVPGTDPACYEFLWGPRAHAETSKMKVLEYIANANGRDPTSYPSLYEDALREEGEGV

In order of falling TR-FRET signal:
1. Cc1cccc(CN(CCCCNc2ccnc3cc(Cl)ccc23)Cc2ccccc2)c1 [SJ000361206]  29.54
2. FC(F)(F)c1ccccc1CN(CCCCNc1ccnc2cc(Cl)ccc12)Cc1ccccc1 [SJ000361192]  27.82
3. CCC(CC)CN(CCCCNc1ccnc2cc(Cl)ccc12)Cc1ccccc1 [SJ000361195]  25.54
4. O=[N+]([O-])c1cccc(CN(CCCCNc2ccnc3cc(Cl)ccc23)Cc2ccccc2)c1 [SJ000361201]  24.37
5. Clc1ccc2c(NC3CCN(CCCc4ccccc4)CC3)ccnc2c1 [SJ000523104]  20.65
6. CCCN(CCCCNc1ccnc2cc(Cl)ccc12)Cc1ccoc1 [SJ000311200]  12.31
7. COc1cccc(CN2CCC(Nc3ccnc4cc(Cl)ccc34)CC2)c1O [SJ000357525]  9.995
8. CCOC(=O)c1cnc2c(C)c(C)ccc2c1NCCN(C)C [SJ000134078]  8.538
9. COc1cccc(F)c1CN(CCCCNc1ccnc2cc(Cl)ccc12)Cc1ccccc1 [SJ000357501]  5.094
10. CCOC(=O)c1cnc2c(C)cc(Cl)cc2c1NCCN1CCOCC1 [SJ000129560]  4.96
11. O=C(O)c1ccccc1CN(CCCCNc1ccnc2cc(Cl)ccc12)Cc1ccccc1 [SJ000361203]  4.099
12. CCc1ccc2ncc(S(=O)(=O)c3ccc(C)cc3)c(N3CCN(CC)CC3)c2c1 [SJ000083962]  2.377
13. Cc1ccc(CN(CCCCNc2ccnc3cc(Cl)ccc23)Cc2ccccc2)o1 [SJ000312682]  2.013
14. CCN1CCN(c2c(S(=O)(=O)c3ccccc3)cnc3ccc(OC)cc23)CC1 [SJ000083958]  0.1242
15. Cc1cc(NC(=O)CN[C@H]2CCN(Cc3cccc(F)c3)C2)c2ccccc2n1 [SJ000832581]  −1.278
16. O=[N+]([O-])c1ccc(CN2CCC(Nc3ccnc4cc(Cl)ccc34)CC2)cc1 [SJ000523096]  −4.954
17. O=S(=O)(c1ccccc1)c1cnc2ccc(Cl)cc2c1N1CCN(c2ccccc2F)CC1 [SJ000315176]  −5.441
18. CCN1CCN(c2c(S(=O)(=O)c3ccc(Cl)cc3)cnc3cc(OC)c(OC)cc23)CC1 [SJ000083970]  −6.809
19. COc1ccc2ncc(S(=O)(=O)c3ccc(C)c(C)c3)c(N3CCN(c4ccccc4F)CC3)c2c1 [SJ000117078]  −8.289
20. CCc1ccc(S(=O)(=O)c2cnc3ccccc3c2N2CCN(c3ccc(OC)cc3)CC2)cc1 [SJ000117074]  −11.2
21. O=S(=O)(c1ccc(Br)cc1)N1CCN(c2ccnc3cc(Cl)ccc23)CC1 [SJ000201754]  −16.75
22. O=S(=O)(c1ccccc1)c1cnc2ccc(F)cc2c1N1CCN(c2ccccc2)CC1 [SJ000083976]  −31.1
23. CCCN(CCCNc1c2ccc(Cl)cc2nc2ccc(OC)cc12)Cc1scnc1C [SJ000522976]  −127
24. CCCN(CCCNc1c2ccc(Cl)cc2nc2ccc(OC)cc12)Cc1c[nH]c2ccccc12 [SJ000522978]  −166.2
25. CCCN(CCCNc1c2ccc(Cl)cc2nc2ccc(OC)cc12)Cc1ccc(OC)c(F)c1 [SJ000522963]  −177.5
26. CCCN(CCCNc1c2ccc(Cl)cc2nc2ccc(OC)cc12)Cc1ccco1 [SJ000520935]  −202.6
27. COc1ccc2ncc(S(=O)(=O)c3ccccc3)c(N3CCN(c4ccccc4F)CC3)c2c1 [SJ000315263]  −252.5
28. CCCN(CCCNc1c2ccc(Cl)cc2nc2ccc(OC)cc12)Cc1cccn1C [SJ000522987]  −302.6
29. COc1ccc2nc3cc(Cl)ccc3c(NCCCNCCCSC)c2c1 [SJ000523025]  −336.9
30. COc1ccc2nc3cc(Cl)ccc3c(NCCCNCc3cccn3C)c2c1 [SJ000520985]  −402.5
31. CCC(CC)CNCCCNc1c2ccc(Cl)cc2nc2ccc(OC)cc12 [SJ000361092]  −427.4

Same assay, conditions: single point TR-FRET screening of quinoline compounds against MAGE-A11:PCF11; 15 μM

In order of falling TR-FRET signal:
1. c1coc(CNCCCNc2ccnc3cc(-c4cccc5ccccc45)ccc23)c1 [SJ000311274]  41.57
2. CCCN(CCCNc1c2ccc(Cl)cc2nc2ccc(OC)cc12)Cc1ccc2[nH]ccc2c1 [SJ000522732]  39.47
3. FC(F)(F)c1ccc2c(NCCCNCc3cc4ccccc4s3)ccnc2c1 [SJ000521060]  35.63
4. Clc1ccc2c(NCCCNCc3csc4ccccc34)ccnc2c1 [SJ000521033]  33.38
5. CCCN(CCCNc1ccnc2cc(C(F)(F)F)ccc12)Cc1ccc(CC)cc1 [SJ000521009]  31.77
6. CCCCCCNCCCNc1ccnc2cc(C(F)(F)F)ccc12 [SJ000361124]  31.61
7. CCCCCN(CCC)CCCNc1ccnc2cc(C(F)(F)F)ccc12 [SJ000361271]  30.93
8. O=C(C[C@H]1CC[C@]2(CC1)OO[C@]1(O2)C2CC3CC(C2)CC1C3)NCCCNc1ccnc2cc(Cl)ccc12 [SJ000578380]  28.48
9. CCCN(CCCNc1ccnc2cc(C(F)(F)F)ccc12)Cc1ccc(F)cc1 [SJ000523070]  26.44
10. CN(C)CCCNc1c2c(nc3ccccc13)CCC2 [SJ000029259]  24.05
11. CCC(CC)CN(CCCNc1ccnc2cc(Cl)ccc12)Cc1ccccc1 [SJ000361172]  22.91
12. Fc1cccc(C(F)(F)F)c1CN(CCCNc1ccnc2cc(Cl)ccc12)Cc1ccccc1 [SJ000520467]  22.01
13. Clc1ccc2c(NCCCN(Cc3ccccc3)Cc3ccc[nH]3)ccnc2c1 [SJ000522717]  20.46
14. CCCN(CCCNc1c2ccc(Cl)cc2nc2ccc(OC)cc12)Cc1ccc(Cl)c(C(F)(F)F)c1 [SJ000522974]  16.36
15. COc1ccc(O)c(CN(CCCNc2ccnc3cc(Cl)ccc23)Cc2ccccc2)c1 [SJ000357463]  14.17
16. CCCN(CCCNc1ccnc2cc(Cl)ccc12)CC(CC)CC [SJ000522752]  14.17
17. CC(C)CCc1ccc2c(NCCCNCc3ccco3)ccnc2c1 [SJ000311246]  13.01
18. CCCNCCCNc1ccnc2cc(C(F)(F)F)ccc12 [SJ000361123]  12.82
19. CCCN(CCCNc1ccnc2cc(Cl)ccc12)CC(C)C [SJ000357568]  11.45
20. CCOC(=O)c1cnc2ccc(C(=O)OC)cc2c1NCCCN1CCOCC1 [SJ000279665]  10.71
21. Fc1ccc(Oc2ccc3c(NCCCNCc4ccco4)ccnc3c2)cc1 [SJ000311222]  9.365
22. CCCN(CCCNc1ccnc2cc(Cl)ccc12)Cc1ccc([N+](=O)[O-])s1 [SJ000522750]  9.134
23. COc1ccc(F)cc1CN(CCCNc1ccnc2cc(Cl)ccc12)Cc1ccccc1 [SJ000357495]  6.683
24. Clc1ccc2c(NCCCNCC3CCOC3)ccnc2c1 (centres unmarked) [SJ000521038]  0.4026
25. CCCN(CCCNc1c2ccc(Cl)cc2nc2ccc(OC)cc12)Cc1cccnc1Br [SJ000522977]  0.2567
26. CCCN(CCCNc1c2ccc(Cl)cc2nc2ccc(OC)cc12)Cc1cc2ccccc2s1 [SJ000522962]  −21.58
27. CCCN(CCCNc1c2ccc(Cl)cc2nc2ccc(OC)cc12)Cc1cccc2ccccc12 [SJ000520952]  −40.77
28. CCCN(CCCNc1c2ccc(Cl)cc2nc2ccc(OC)cc12)Cc1ccc(-c2ccccc2)cc1 [SJ000522740]  −74.01
